Source: patent publication US11505574B2, “Modulation of P53 for the treatment of cancer” (THE REGENTS OF THE UNIVERSITY OF CALIFORNIA, priority 2016, dated 2022)

Legend:
[1] = test system: p53; test: Western blot for p53 and downstream targets in RKO cells treated with peptides; format: cell-based, human; conditions: RKO cells
[2] = test system: MIA-PaCa-2 pancreatic cancer cells; test: MIA-PaCa-2 cell colony formation assay (peptides); format: cell-based, human; conditions: miaPaCa2 cells (mutant p53); 10 μM for 20 minutes then 0.25 ng/mL doxorubicin 18 hours (FIG. 37D)
Description: […] […] After colonies formed they were fixed (i.e., using 7:1 MeOH:glacial acetic acid) and stained with crystal violet.

[3] = biological target: T1, eIF4E association with p53 mRNA (Homo sapiens, UniProt P06730); test: RNA-ChIP assay in RKO cells; format: cell-based; conditions: 1.5 μM, 2 hours, versus Pen-Ctrl (FIG. 33A)
T1 construct: endogenous in cells; host or cells: RKO cells
T1 sequence (P06730 2-217 limits assumed): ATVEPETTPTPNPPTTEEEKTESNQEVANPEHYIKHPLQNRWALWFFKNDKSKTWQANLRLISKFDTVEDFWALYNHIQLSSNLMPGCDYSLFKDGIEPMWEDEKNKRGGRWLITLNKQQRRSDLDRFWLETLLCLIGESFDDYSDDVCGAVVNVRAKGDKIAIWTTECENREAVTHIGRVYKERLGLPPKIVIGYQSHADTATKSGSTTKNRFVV
Experimental: RNA-ChIP assays were performed to examine how peptides of the present invention affect eIF4E association with p53 mRNA (FIG. 33). For the experiments shown in FIG. 33A, 4 10 cm plates were seeded with 2×10^6 RKO cells the night before. The next morning 2 plates were treated with 1.5 μM Pen-Ctrl (SEQ ID NO:10) and 2 plates were treated with 1.5 μM Pen-Pep8 (SEQ ID NO:50) for 2 hours. RKO cells were harvested in 1 mL per plate polysome lysis buffer, then centrifuged at 16,000×G for 15 minutes in a microcentrifuge at 4° C. The supernatant was pooled from all aliquots and transferred to a 15 ml tube. Equilibration was performed with 50% protein A-agarose slurry in polysome lysis buffer by washing twice with 0.5 mL of polysome lysis buffer and then restoring the original volume with lysis buffer. 3×200 μL tubes of agarose. For preclearing, one aliquot of equilibrated protein A-agarose beads was added to the lysate (50 μL of 50% agarose per 1 mL lysate) and incubated with rotation at 4° C. for 1 hour. Lysate was divided into microcentrifuge tubes and centrifuged briefly for 30 seconds to collect beads. Supernatant was pooled and transferred to a new 15 mL tube. After repeating the preclearing and bead collection steps, lysate was divided into 1 mL aliquots (i.e., 2×1 mL Pen-Ctrl and 2×1 mL Pen-Pep8). […]

[4] = test system: p-eIF4E (Ser209); test: Western blot for p-eIF4E (Ser209) in RKO, MCF7 and miaPaCa2 cells; format: cell-based
Experimental: For the experiments shown in FIG. 37A, RKO cells were plated at a seed density of 1×10^5 cells per well in 12-well plates the night before the addition of peptides. For PEP1 (SEQ ID NO:13) plus Ctrl (SEQ ID NO:11), Pep8 (SEQ ID NO:1), Pep8-SR (SEQ ID NO:53), and Pep8-SK (SEQ ID NO:52), 375 nM of peptide was added to […] PEP1 in 100 μL serum-free DMEM for 20 minutes before being added to the cells for 18 hours. After 18 hours, cells were harvested with 1×SDS-lysis buffer (150 μL) and then lysate was run on a 10% SDS-PAGE gel followed by Western blotting for p53, p-eIF4E (Ser209), and actin.
For the experiments shown in FIG. 37B, MCF7 cells were grown the night before in a 6-well plate seeded with 2×10^5 cells. The next day cells were treated with 2.5 μM Pen-Ctrl (SEQ ID NO:10) or Pen-Pep8 (SEQ ID NO:50) for 18 hours. The following day, the cells were lysed with 1×SDS-lysis buffer (250 μL) and lysate was run on a 10% SDS-PAGE gel. 20 μl was loaded per well followed by Western blot for p-eIF4E (Ser-209), p53, and actin.
For the experiments shown in FIG. 37C, 2×10^5 miaPaCa2 cells per well were plated the day before in a 6-well plate. The following day, the cells were treated with 2.5 μM Pen-Ctrl (SEQ ID NO:10) or Pen-Pep8 (SEP ID NO:50) for 30 minutes then treated with 6.25 ng/mL doxorubicin for 18 hours. […]

Sequence: RQIKIWFQNRRMKWKKYPYAASPA [Pen-Pep8, Penetratin fused to Pep8]
- sensitization to low-dose etoposide (p53 Western blot) ([1]; 1.5 μM for 20 minutes then 0.125 ng/mL etoposide 18 hours (FIG. 34I)): also to low-dose etoposide
- sensitization to low-dose doxorubicin (p53 Western blot) ([1]; 1.5 μM for 20 minutes then 6.25 ng/mL doxorubicin 18 hours (FIG. 34I)): sensitized to low-dose doxorubicin
- p53 expression with low dose doxorubicin (Western blot) ([1]; 2.5 μM for 20 minutes then 6.25 ng/mL doxorubicin 18 hours (FIG. 34A)): robust p53 expression
- p53 expression (Western blot) ([1]; 2.5 μM, 18 hours (FIG. 32B)): induced p53 expression
- colony formation, sensitization to low-dose doxorubicin [2]: sensitized to low-dose doxorubicin
- eIF4E association with p53 mRNA (RNA-ChIP) [3]: increased eIF4E association with p53 mRNA
- p-eIF4E (Ser-209) level (Western blot) ([4]; MCF7 cells, 2.5 μM, 18 hours (FIG. 37B)): reduced p-eIF4E
- p-eIF4E (Ser209) level (Western blot) ([4]; miaPaCa2 cells, 2.5 μM for 30 minutes then 6.25 ng/mL doxorubicin 18 hours (FIG. 37C)): substantial decrease in p-eIF4E
